# In patent US7883730B2, “Rumen protected lysine” (Zinpro Corporation, priority 2007, dated 2011):
# Test system: Lactating Holstein Dairy Cows
# Assay: Feeding evaluation: lactation responses to N-Benzylidene-L-Lysine
# Type: in vivo
# Source text: Evaluation of Feeding N-Benzylidene-L-Lysine Using Lactating Holstein Dairy Cows
# All cows received the same base diet. Cows were assigned to one of two treatments: (1) control, (2) control+N-Benzylidene-L-Lysine (TrTA). N-Benzylidene-L-Lysine was supplemented at a rate to supply 40 g of Lys when cows consumed 53.0 lb dry matter/d. The control diet was formulated to be deficient of lysine. “P” refers to the probability value (p-value).
# [1] = control diet deficient of lysine plus 40 g Lys from N-Benzylidene-L-Lysine, 14 days
structure (smiles),measurement,setting,value
"NCCCC[C@H](N=Cc1ccccc1)C(=O)O [Trt A, N-Benzylidene-L-Lysine]",ECM,[1],81.3 lbs/d
same,FCM,[1],81.2 lbs/d
same,Milk,[1],77.3 lbs/d
same,ECM/Feed,"control diet plus 40 g Lys from N-Benzylidene-L-Lysine, 14 days",1.53
same,"Fat, %","milk fat content, control diet plus 40 g Lys from N-Benzylidene-L-Lysine, 14 days",3.81%
same,"Fat, lbs/d","milk fat yield, control diet plus 40 g Lys from N-Benzylidene-L-Lysine, 14 days",2.94 lbs/d
same,"Protein, %","milk protein content, control diet plus 40 g Lys from N-Benzylidene-L-Lysine, 14 days",3.14%
same,"Protein, lbs/d","milk protein yield, control diet plus 40 g Lys from N-Benzylidene-L-Lysine, 14 days",2.41 lbs/d
same,Lactation response versus control (conclusion in words),"versus lysine-deficient control diet, from Table 1 data","produced more milk, more protein and more fat"
